What was measured:
[1] = tested on: men and beasts, as well as to fish; test: Harmlessness to men, beasts and fish (general statement); conditions: in vivo
Pellicularia sasakii [2] = test: Rice sheath blight control test, remedial; format: in vivo; conditions: inoculation 3 days before application, untreated 34.4cm
Description: (§1) Rice sheath blight control test
(§2) Rice Plants (variety: Kinmaze) are planted in earthen pots 9 cm in diameter, 3 stocks per pot. Seedlings 80 days after potting are tested and 6 pots each of them are grouped.
(§3) Pathogenic fungi Pellicularia sasakii is cultivated on a plate of potato infusion-sugar-agar at 30°C for 48 hours, and its agar disc 10mm in diameter is cut out from a peripheral colony. The disc is inserted into the inside space of the leaf sheath near the soil surface, a disc per stem. The pots are kept in a PVC shelter at the temperature of 32°-25° C and the relative humidity of 100-70%. Inoculation is carried out immediately after the applied drug has been air-dried in the prophylactic test, and 3 days before application in the remedial test.
(§4) 10 days after application of the drug, the length of each stem from ground level to the upper edge of the lesion is directly measured.

[3] = Acute toxicity for Oryzias latipes (median lethal dose, 48 hours); format: in vivo; conditions: medaka, leaving in water solution, read-out: TLm
Description: (§5) The toxicity of the antibiotics can be confirmed, for instance, by administering each of the validamycins C, D, E and F, and validoxylamines A and B, intravenously to mice and measuring the LD50 value, or by measuring the median lethal dose (48 hours) for Oryzias latipes.

bacteria and fungi = test: Antimicrobial potency / growth inhibition in vitro; format: cell-based
useful plants = test: Effect on useful plants (general statement); format: in vivo; conditions: even when applied in a high concentration
Solubilities = format: physicochemical
Rhyzoctonia solani = test: Cucumber damping-off control test; format: in vivo; conditions: 14 days after sowing
Description: Cucumber damping-off control test
Rhyzoctonia solani is cultured on barley medium at 28° C for 5 days. A field soil sample is packed into clay pots 9 cm in diameter, which are then sterilized with steam. The chaff inoculum is evenly worked into the cover soil of each pot to the depth of about 3 cm, at the rate of 2g./pot. The pots are kept in an incubation chamber at 28° C for 4 days and, then, transferred to a greenhouse.
As per Experiment 1, the drug is sprayed onto the soil surface at the rate of 30 ml./6 pots/group.
Healthy seeds of cucumber (variety: Yonyo) are sown by burial in the pots immediately after treatment, at the rate of 10 seeds/pot. The pots are then placed in a greenhouse at 32°-28° C.
14 days after sowing, the results are evaluated against the following coefficients of lesion and the degrees of damage are calculated.
Coefficients of lesion (I)
0.5 : Root hairs alone are slightly affected.
1 : Aerial portions near soil surface and roots affected.
2 : Early stage of damping-off.
3 : Affected at germination; growth inhibited.
Degree of damage (%) =(Σ(nI))/3 × N × 100 wherein n means the number of samples corresponding to each coefficient of lesion and N means the total number of plants.

plant diseases = test: Control of plant diseases (general statement); format: in vivo; conditions: for controlling effect against plant diseases, for example, the sheath blight of the rice plant: application in vivo; for effectiveness against sheath blight and stem rot of rice plant, damping off and sclerotial blight of vegetables, flowering plants and lumber seedlings: in vivo
Pellicularia sasakii [4] = test: Rice sheath blight control test, preventive (prophylactic); format: in vivo; conditions: 10 days after application, untreated 34.4cm
Description: as §1, §2, §3, §4

Cladosporium fulvum = test: Tomato leaf mold control test; format: in vivo; conditions: 50 ppm; 14 days after inoculation; inoculated 3 days before application
Description: Tomato leaf mold control test
Tomato plants (variety: ponterosa) are planted in 12 cm in diameter pots, one plant per pot. The seedlings 50 days after potting are used, 6 pots/group.
Applied at the rate of 100 ml./6 pots/group as per Experiment 1.
Pathogenic fungi Cladosporium fulvum is cultured on a potato infusion-sucrose plate at 20° C for 14 days, and a suspension of conidia (5×10^5 /ml.) is prepared from the culture.
The plants are spray-inoculated with the suspension 3 days before application of the drug, at the rate of 5 ml. per pot. The pots are kept in an inoculation chamber at 25° C for 24 hours, and, then they are transferred to a greenhouse.
14 days after inoculation, the specific ratio of the average area of lesion in the leaves is measured.

[5] = Acute toxicity in mice, intravenous injection; format: in vivo; conditions: mouse, in vivo
Description: as §5

Pellicularia sasakii [6] = test: Abnormal branching of hyphal tips of Pellicularia sasakii (agar dilution bioassay); format: cell-based; conditions: for highest dilution factor that causes an abnormal branching at the hyphal tips of Pellicularia sasakii: 1 mg./ml. aqueous solution as stock solution; for dilution unit (maximum dilution which produces abnormal branching): aqueous solution containing 1000 γ/ml., 27° C for 40 hours
Description: Therefore, the bioassay of the antibiotics should be conducted in the following manner.
Pellicularia sasakii is used as the test organism employing plain agar as the assay medium. The test organism is cultivated on a potato (sucrose) agar slant for 2 to 5 days, and the resulting culture is used to inoculate at the center of a 9-cm Petri dish plate of modified Pfeffer's medium, which is then incubated at 27° C for 2 days. By the end of this period, the mycelium will have spread over the entire surface of the plate. The growth on the circumference about 3 to 3.5 cm in radius from the center is cut out with a cork borer and the agar disc thus obtained is used as the inoculum.
A serial dilution series of agar plants containing varying concentrations of the antibiotics is prepared in the same manner as a conventional agar dilution method.
A glass disc of 8 mm in diameter and about 0.2 mm thick, is placed in the center of each of the aforementioned dilution series of agar plates, and the agar disc inoculum is then placed on the glass disc. After incubation at 27° C for 40 hours, the result is evaluated. […] The term dilution unit means the value of maximum dilution which produces such abnormal branching.
Modified Pfeffer's medium, which is employed in this assay, has the following composition.
Before using the medium, the following vitamins are added in the specified amounts. (Weight per ml. of medium)
When a 1 mg./ml. aqueous solution of each of validamycins C, D, E and F and validoxylamines A and B is used as a stock solution, the highest dilution factor that causes an abnormal branching at the hyphal tips of Pellicularia sasakii is as follows.

[7] = pKa' (neutralization, in aqueous solution); format: physicochemical; conditions: water
Excerpt: 3. The elementary analysis, the molecular formulas as calculated therefrom, pKa' values, neutralization equivalents (molecular weight) and optical rotation values are given in Table 2.

Row | Structure (SMILES) | harmfulness to men and beasts, as well as to fish [1] | Remedial effect (percent of the average length of lesion/stem per control untreated) (Pellicularia sasakii [2]; 10 ppm) | Remedial effect (percent of the average length of lesion/stem per control untreated) (Pellicularia sasakii [2]; 30 ppm) | Remedial effect (percent of the average length of lesion/stem per control untreated) (Pellicularia sasakii [2]; 100 ppm) | Remedial effect (percent of the average length of lesion/stem per control untreated) (Pellicularia sasakii [2]; 300 ppm) | LC50 at 48 h [3] | antimicrobial potency / growth inhibition of bacteria and fungi in vitro (bacteria and fungi) | effect on germination, growth, yield and other features of useful plants (useful plants) | solubility in methanol (Solubilities) | Degree of damage (Rhyzoctonia solani; 5 ppm) | Degree of damage (Rhyzoctonia solani; 20 ppm) | Degree of damage (Rhyzoctonia solani; 80 ppm) | controlling effect against plant diseases, for example, the sheath blight of the rice plant (plant diseases) | effectiveness against sheath blight and stem rot of rice plant, damping off and sclerotial blight of vegetables, flowering plants and lumber seedlings (plant diseases) | Preventive effect (percent of the average length of lesion/stem per control untreated) (Pellicularia sasakii [4]; 3 ppm) | Preventive effect (percent of the average length of lesion/stem per control untreated) (Pellicularia sasakii [4]; 10 ppm) | Preventive effect (percent of the average length of lesion/stem per control untreated) (Pellicularia sasakii [4]; 30 ppm) | Preventive effect (percent of the average length of lesion/stem per control untreated) (Pellicularia sasakii [4]; 100 ppm) | Preventive effect (percent of the average length of lesion/stem per control untreated) (Pellicularia sasakii [4]; 300 ppm) | Specific area of lesion (Cladosporium fulvum) | also measured
1 | OCC1=CC(NC2CC(CO)C(O)C(O)C2O)C(O)C(O)C1O (centres unmarked) [Validoxylamine A] | substantially harmless | 28% | 14% | 10% | 7% | > 1000 µg/mL | no antimicrobial potency | do not substantially affect | soluble | 84% | 6% | 0% | excellent controlling effect | very effective | 28% | 4% | 1% | 0% | 0% | 6% | Remedial effect (percent of the average length of lesion/stem per control untreated) (Pellicularia sasakii [2]; 3 ppm): 83%; LD50 [5]: > 2000 mg/kg; highest dilution factor that causes an abnormal branching at the hyphal tips of Pellicularia sasakii (Pellicularia sasakii [6]): 100; dilution unit (maximum dilution which produces abnormal branching) (Pellicularia sasakii [6]): 100 dilution unit/ml.; pKa [7]: 6.2 ± 0.2
2 | OCC1=C[C@H](NC2C(O)C(O)C(O)C(CO)C2O)[C@H](O)[C@@H](O)[C@@H]1O (some centres unmarked) [Validoxylamine B] | substantially harmless | 93% | 75% | 51% | 10% | > 1000 µg/mL | no antimicrobial potency | do not substantially affect | more sparingly soluble | 100% | 100% | 75% | excellent controlling effect | very effective | 49% | 47% | 32% | 16% | 8% | 36% | solubility in pyridine (Solubilities; pyridine): more sparingly soluble; LD50 [5]: > 2000 mg/kg; highest dilution factor that causes an abnormal branching at the hyphal tips of Pellicularia sasakii (Pellicularia sasakii [6]): 10; dilution unit (maximum dilution which produces abnormal branching) (Pellicularia sasakii [6]): 10 dilution unit/ml.; pKa [7]: 5 ± 0.2

— patent US4089947A, “Antibiotic compositions containing validamycin compounds” (priority 1976, dated 1978)
